Among the data in patent US7173004B2, “Macrocyclic isoquinoline peptide inhibitors of hepatitis C virus” (Bristol-Myers Squibb Company, priority 2003, dated 2007) are IC50 values, retold here.

Structures are written as SMILES.

One assay deals with T1, HCV NS3/4A protease complex, BMS strain (genotype 1a) (UniProt P27958, C1454S/C1711G, species not given/STRAIN_BMS).
T1 construct: b1001: DNA encoding the recombinant HCV NS3/4A protease complex (amino acids 1027 to 1711) ... a three-lysine solubilizing tail was added at the 3′-end of the NS4A coding region; fused on or other part: Three-lysine solubilising tail at the C-terminus of NS4A; A His tag is implied by the pET21b vector and Ni-NTA purification
Kind of assay: Recombinant HCV NS3/4A protease complex FRET peptide assay, BMS strain. Type of assay: biochemical. The conditions noted are these: NS3/4A BMS Strain; activity range classes. The essentials:
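Recombinant NS3/4A (aa 1027–1711) from H77C, J4L6S or BMS strains, with C1454S and C1711G mutations and three-lysine tail, expressed in E. coli and Ni-NTA/gel-filtration purified to >90%. Inhibition of cleavage of a FRET peptide substrate measured.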
Broadly, the IC50 is the point on the concentration scale where inhibition reaches its midpoint. As for `COc1ccc2c(O[C@@H]3C[C@H]4C(=O)N[C@]5(C(=O)O)C[C@H]5/C=C\CCCSC(C)(C)[C@H](NC(=O)OC(C)(C)C)C(=O)N4C3)nccc2c1` [Compound 79, (1S,4R,6S,14R,18R)-7-cis-14-tert-Butoxycarbonylamino-13,13-dimethyl-18-(6-methoxy-isoquinolin-1-yloxy)-2,15-dioxo-12-thia-3,16-diazatricyclo[14.3.0.0^4,6]nonadec-7-ene-4-carboxylic acid], the half-maximal inhibitory concentration (IC50) lay within 5000 to 50000 nM.

For `COc1ccc2c(OC3CC4C(=O)NC5(C(=O)O)CC5C=CCCCSCC(NC(=O)OC(C)(C)C)C(=O)N4C3)nccc2c1` (centres unmarked) [Compound 18A, 14-tert-Butoxycarbonylamino-18-(6-methoxy-isoquinolin-1-yloxy)-2,15-dioxo-12-thia-3,16-diaza-tricyclo[14.3.0.0^4,6]nonadec-7-ene-4-carboxylic acid], the IC50 lay in the range of 50 to 500 nM.

With `COc1ccc2c(OC3CC4C(=O)NC5(C(=O)O)CC5C=CCCCCCC(NC(=O)OC(C)(C)C)C(=O)N4C3)nccc2c1` (centres unmarked) [Compound 17A], the IC50 was < 50 nM.

Staying with this assay, now noted: NS3/4A BMS strain; activity range symbols.
With `COc1ccc2c(OC3CC4C(=O)NC5(C(=O)NS(=O)(=O)C6(C)CC6)CC5C=CCCCOC(C)C(NC(=O)OC(C)(C)C)C(=O)N4C3)nccc2c1` (centres unmarked) [Compound 66], the IC50 was < 50 nM.

As for `CC(C)(CCl)OC(=O)NC1CCCCCC=CC2CC2(C(=O)NS(=O)(=O)C2CC2)NC(=O)C2CC(Oc3nccc4ccccc34)CN2C1=O` (centres unmarked) [Compound 52], the IC50 was < 50 nM.

`COc1ccc2c(OC3CC4C(=O)NC5(C(=O)NS(=O)(=O)C6CC6)CC5C=CCOCCCC(NC(=O)OC(C)(C)C(F)(F)F)C(=O)N4C3)nccc2c1` (centres unmarked) [Compound 39]: the IC50 was < 50 nM.

`COc1ccc2c(OC3CC4C(=O)NC5(C(=O)NS(=O)(=O)C6(C)CC6)CC5C=CCCCOC(C)C(NC(=O)NC5CCCC5)C(=O)N4C3)nccc2c1` (centres unmarked) [Compound 69]: the IC50 is < 50 nM.

Turning to `CS(=O)(=O)NC1CCCCCC=CC2CC2(C(=O)NS(=O)(=O)C2CC2)NC(=O)C2CC(Oc3nccc4ccccc34)CN2C1=O` (centres unmarked) [Compound 25], the IC50 was < 50 nM.

Consider `CC(C)(OC(=O)NC1CCCCCC=CC2CC2(C(=O)NS(=O)(=O)C2CC2)NC(=O)C2CC(Oc3nccc4ccccc34)CN2C1=O)C(F)(F)F` (centres unmarked) [Compound 51], for which the IC50 is < 50 nM.

With `COc1ccc2c(OC3CC4C(=O)NC5(C(=O)NS(=O)(=O)C6CC6)CC5C=CCOCCCC(NC(=O)NC(C)(C)C)C(=O)N4C3)nccc2c1` (centres unmarked) [Compound 34], the IC50 was < 50 nM.

Take `COc1ccc2c(OC3CC4C(=O)NC5(C(=O)NS(=O)(=O)C6(C)CC6)CC5C=CCCCSCC(NC(=O)OC(C)C)C(=O)N4C3)nccc2c1` (centres unmarked) [Compound 41]: the IC50 is < 50 nM.

As for `CCC1(S(=O)(=O)NC(=O)C23CC2C=CCCC[S+]([O-])CC(NC(=O)OC(C)(C)C)C(=O)N2CC(Oc4nccc5cc(OC)ccc45)CC2C(=O)N3)CC1` (centres unmarked) [Compound 47], the IC50 is < 50 nM.

As for `CC(C)(C)OC(=O)N[C@H]1CCCCC/C=C\[C@@H]2C[C@@]2(C(=O)NS(=O)(=O)C2(C)CC2)NC(=O)[C@@H]2C[C@@H](Oc3nccc4ccccc34)CN2C1=O` [Compound 8, [18-(Isoquinolin-1-yloxy)-4-(1-methyl-cyclopropanesulfonylaminocarbonyl)-2,15-dioxo-3,16-diaza-tricyclo[14.3.0.0^4,6]nonadec-7-en-14-yl]-carbamic acid tert-butyl ester], the half-inhibitory concentration (IC50) was < 50 nM.

Turning to `COc1ccc2c(OC3CC4C(=O)NC5(C(=O)NS(=O)(=O)C6(C)CC6)CC5C=CCOCCCC(NC(=O)NC5CCCC5)C(=O)N4C3)nccc2c1` (centres unmarked) [Compound 36], the IC50 was < 50 nM.

Take `CC(C)(C)OC(=O)N[C@H]1CCCCC/C=C\[C@@H]2C[C@@]2(C(=O)NS(=O)(=O)C2(Cc3ccccc3)CC2)NC(=O)[C@@H]2C[C@@H](Oc3nccc4ccccc34)CN2C1=O` [Compound 5, [4-(1-Benzyl-cyclopropanesulfonylaminocarbonyl)-18-(isoquinolin-1-yloxy)-2,15-dioxo-3,16-diaza-tricyclo[14.3.0.0^4,6]nonadec-7-en-14-yl]-carbamic acid tert-butyl ester]: the IC50 is < 50 nM.

For the molecule `CCCNC(=O)NC1CCCCCC=CC2CC2(C(=O)NS(=O)(=O)C2CC2)NC(=O)C2CC(Oc3nccc4ccccc34)CN2C1=O` (centres unmarked) [Compound 23], the IC50 is < 50 nM.

As for `COc1ccc2c(OC3CC4C(=O)NC5(C(=O)NS(=O)(=O)C6(C)CC6)CC5C=CCCCOC(C)C(NC(=O)OCC(C)(C)C)C(=O)N4C3)nccc2c1` (centres unmarked) [Compound 67], the IC50 was < 50 nM.

With `COc1ccc2c(OC3CC4C(=O)NC5(C(=O)NS(=O)(=O)C6CC6)CC5C=CCOCCCC(NC(=O)OC(C)C)C(=O)N4C3)nccc2c1` (centres unmarked) [Compound 31], the IC50 was < 50 nM.

Regarding `CCC1(S(=O)(=O)NC(=O)C23CC2C=CCCCOC(C)C(NC(=O)OC(C)(C)C)C(=O)N2CC(Oc4nccc5cc(OC)ccc45)CC2C(=O)N3)CC1` (centres unmarked) [Compound 70], the IC50 is < 50 nM.

`COc1c(NC2CCCCCC=CC3CC3(C(=O)NS(=O)(=O)C3CC3)NC(=O)C3CC(Oc4nccc5ccccc45)CN3C2=O)c(=O)c1=O` (centres unmarked) [Compound 21]: the concentration for half-maximal inhibition (IC50) was < 50 nM.
